Measured values from PubChem BioAssay (NCI).
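Here, GI50 denotes the concentration required for 50% inhibition of growth. TGI: total growth inhibition.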

Columns and labels:
Assay in all cases: NCI anticancer screen, dose series, 384-well format
[1] = test system: HL-60(TB) leukemia
[2] = test system: OVCAR-8 ovarian
[3] = test system: SF-295 CNS
[4] = test system: KM12 colon
[5] = test system: DU-145 prostate
[6] = test system: IGROV1 ovarian
[7] = test system: EKVX NSCLC
[8] = test system: HS 578T breast
[9] = test system: A549 NSCLC
[10] = test system: HOP-92 NSCLC
[11] = test system: SR leukemia
[12] = test system: NCI-H226 lung
[13] = test system: NCI-H460 NSCLC
[14] = test system: SK-OV-3 ovarian
[15] = test system: M14 melanoma
[16] = test system: NCI-H522 lung
[17] = test system: MDA-MB-231 breast
[18] = test system: SN12C renal
[19] = test system: K-562 leukemia
[20] = test system: SW-620 colon
[21] = test system: HOP-62 NSCLC
[22] = test system: COLO 205 colon
[23] = test system: OVCAR-3 ovarian
[24] = test system: 786-0 renal
[25] = test system: UO-31 renal
[26] = test system: A498 renal
[27] = test system: CCRF-CEM leukemia
[28] = test system: ACHN renal
[29] = test system: OVCAR-4 ovarian
[30] = test system: TK-10 renal
[31] = test system: CAKI-1 renal
[32] = test system: SF-268 CNS
[33] = test system: SK-MEL-28 melanoma
[34] = test system: HCT-116 colon
[35] = test system: MCF7 breast
[36] = test system: NCI-H23 lung
[37] = test system: HCC-2998 colon
[38] = test system: BT-549 breast
[39] = test system: HCT-15 colon
[40] = test system: RPMI-8226 leukemia
[41] = test system: RXF 393 renal
[42] = test system: SK-MEL-5 melanoma
[43] = test system: MDA-MB-435 melanoma
[44] = test system: NCI-H322M lung
[45] = test system: U251 glioblastoma
[46] = test system: LOX IMVI melanoma
[47] = test system: SNB-75 CNS
[48] = test system: PC-3 prostate
[49] = test system: HT29 colon
[50] = test system: SF-539 CNS
[51] = test system: NCI/ADR-RES ovarian
[52] = test system: MALME-3M melanoma
[53] = test system: SNB-19 CNS
[54] = test system: MDA-MB-468 breast
[55] = test system: MOLT-4 leukemia
[56] = test system: UACC-257 melanoma
[57] = test system: OVCAR-5 ovarian
[58] = test system: T-47D breast
[59] = test system: SK-MEL-2 melanoma
[60] = test system: UACC-62 melanoma

## CCC[C@H](Nc1nc(-c2ccc(NC(=O)NCC)c(OC)c2)ncc1C)c1cccnc1
[1]
  GI50: 0.0165 µM
  TGI: 0.0304 µM
[2]
  GI50: 0.0211 µM
  TGI: 0.0492 µM
[3]
  GI50: 0.0185 µM
  TGI: 0.0431 µM
[4]
  GI50: 0.0264 µM
  TGI: 1.18 µM
[5]
  GI50: 0.0307 µM
  TGI: 0.0916 µM
[6]
  GI50: 0.0404 µM
  TGI: 12.4 µM
[7]
  GI50: 0.043 µM
  TGI: 13.3 µM
[8]
  GI50: 0.0187 µM
  TGI: 0.0373 µM
[9]
  GI50: 0.0434 µM
  TGI: 17.4 µM
[10]
  GI50: 0.0304 µM
  TGI: 0.65 µM
[11]
  TGI: 0.0161 µM
[12]
  GI50: 0.0269 µM
  TGI: 0.0753 µM
[13]
  GI50: 0.0178 µM
  TGI: 0.0354 µM
[14]
  GI50: 0.0348 µM
  TGI: 1.5 µM
[15]
  GI50: 0.0218 µM
  TGI: 0.0636 µM
[16]
  GI50: 0.0176 µM
  TGI: 0.0378 µM
[17]
  GI50: 0.0452 µM
  TGI: 17.4 µM
[18]
  GI50: 0.0379 µM
  TGI: 10.5 µM
[19]
  GI50: 0.0203 µM
  TGI: 0.0396 µM
[20]
  GI50: 0.0434 µM
  TGI: 16.5 µM
[21]
  GI50: 0.0331 µM
  TGI: 1.18 µM
[22]
  GI50: 0.0193 µM
  TGI: 0.0417 µM
[23]
  GI50: 0.0195 µM
  TGI: 0.043 µM
[24]
  GI50: 0.0317 µM
  TGI: 0.0975 µM
[25]
  GI50: 0.0628 µM
  TGI: 15.3 µM
[26]
  GI50: 0.0321 µM
  TGI: 0.479 µM
[27]
  GI50: 0.02 µM
  TGI: 0.0345 µM
[28]
  GI50: 0.055 µM
  TGI: 15.6 µM
[29]
  GI50: 0.0486 µM
  TGI: 8.48 µM
[30]
  GI50: 0.0473 µM
  TGI: 16.7 µM
[31]
  GI50: 0.03 µM
  TGI: 14.8 µM
[32]
  GI50: 0.0273 µM
  TGI: 0.169 µM
[33]
  GI50: 0.0956 µM
  TGI: 16.2 µM
[34]
  GI50: 0.0263 µM
  TGI: 0.0745 µM
[35]
  GI50: 0.0296 µM
  TGI: 1.36 µM
[36]
  GI50: 0.0207 µM
  TGI: 0.0516 µM
[37]
  GI50: 0.0229 µM
  TGI: 0.063 µM
[38]
  GI50: 0.0227 µM
  TGI: 0.059 µM
[39]
  GI50: 0.024 µM
  TGI: 0.0683 µM
[40]
  GI50: 0.0182 µM
  TGI: 0.0328 µM
[41]
  GI50: 0.0164 µM
  TGI: 0.0406 µM
[42]
  GI50: 0.0175 µM
  TGI: 0.0365 µM
[43]
  GI50: 0.0191 µM
  TGI: 0.0382 µM
[44]
  GI50: 0.0408 µM
  TGI: 20.6 µM
[45]
  GI50: 0.025 µM
  TGI: 0.0646 µM
[46]
  GI50: 0.0256 µM
  TGI: 0.067 µM
[47]
  GI50: 0.0334 µM
  TGI: 11.3 µM
[48]
  GI50: 0.0385 µM
  TGI: 16.5 µM
[49]
  GI50: 0.0289 µM
  TGI: 12.6 µM
[50]
  GI50: 0.0183 µM
  TGI: 0.0365 µM
[51]
  GI50: 0.17 µM
  TGI: 0.426 µM
[52]
  GI50: 0.032 µM
  TGI: 15 µM
[53]
  GI50: 0.0353 µM
  TGI: 10.3 µM
[54]
  GI50: 0.0168 µM
  TGI: 0.0334 µM
[55]
  GI50: 0.0197 µM
  TGI: 0.0342 µM
[56]
  GI50: 0.0745 µM
  TGI: 16.4 µM
[57]
  GI50: 0.798 µM
  TGI: 84.8 µM
[58]
  GI50: 0.0719 µM
  TGI: 14.4 µM

## Cc1c(N(C(=O)c2cc(-c3cc(Cl)ccc3C(=O)N3Cc4ccccc4C[C@H]3CN3CCOCC3)n(C)c2C)c2ccc(O)cc2)cc(C#N)n1C
[1]
  GI50: 0.0546 µM
  TGI: 1.19 µM
[2]
  GI50: 8.66 µM
  TGI: > 100 µM
[3]
  GI50: 13.4 µM
  TGI: 62.6 µM
[4]
  GI50: 16.1 µM
  TGI: > 100 µM
[5]
  GI50: 16.3 µM
  TGI: > 100 µM
[6]
  GI50: 13.5 µM
  TGI: > 100 µM
[9]
  GI50: 7.07 µM
  TGI: > 100 µM
[59]
  GI50: 5.97 µM
  TGI: 20 µM
[10]
  GI50: 2.58 µM
  TGI: 7.15 µM
[11]
  GI50: 1.46 µM
  TGI: 2.87 µM
[12]
  GI50: 9.16 µM
  TGI: 22.2 µM
[13]
  GI50: 6.2 µM
  TGI: > 100 µM
[14]
  GI50: 11.5 µM
  TGI: 45.2 µM
[15]
  GI50: 12 µM
  TGI: 34.1 µM
[16]
  GI50: 12.8 µM
  TGI: 36.8 µM
[17]
  GI50: 3.74 µM
  TGI: 14.1 µM
[18]
  GI50: 9.51 µM
  TGI: > 100 µM
[19]
  GI50: 4.85 µM
  TGI: 38.2 µM
[20]
  GI50: 11.3 µM
  TGI: 25.7 µM
[21]
  GI50: 5.87 µM
  TGI: 29.3 µM
[60]
  GI50: 6.3 µM
  TGI: 27.3 µM
[22]
  GI50: 25.5 µM
  TGI: > 100 µM
[23]
  GI50: 3.87 µM
  TGI: 18.9 µM
[24]
  GI50: 6.22 µM
  TGI: 30 µM
[25]
  GI50: 10.9 µM
  TGI: > 100 µM
[26]
  GI50: 4.79 µM
  TGI: 19 µM
[27]
  GI50: 1.68 µM
  TGI: 3.11 µM
[28]
  GI50: 7.31 µM
  TGI: > 100 µM
[29]
  GI50: 5.99 µM
  TGI: 37.5 µM
[30]
  GI50: 12.5 µM
  TGI: 58.6 µM
[31]
  GI50: 9.01 µM
  TGI: 66.1 µM
[32]
  GI50: 22 µM
  TGI: > 100 µM
[33]
  GI50: 17.1 µM
  TGI: 67.1 µM
[34]
  GI50: 4.12 µM
  TGI: > 100 µM
[35]
  GI50: 11.4 µM
  TGI: > 100 µM
[36]
  GI50: 9.38 µM
  TGI: > 100 µM
[37]
  GI50: 3.35 µM
  TGI: 8.64 µM
[38]
  GI50: 12.5 µM
  TGI: 30.9 µM
[39]
  GI50: 9.36 µM
  TGI: 24.1 µM
[40]
  GI50: 1.26 µM
  TGI: 2.52 µM
[41]
  GI50: 0.886 µM
  TGI: 3.92 µM
[42]
  GI50: 9.04 µM
  TGI: 28.4 µM
[43]
  GI50: 5.21 µM
  TGI: 19.3 µM
[44]
  GI50: 24.7 µM
  TGI: > 100 µM
[45]
  GI50: 7.69 µM
  TGI: > 100 µM
[46]
  GI50: 10.4 µM
  TGI: 33 µM
[48]
  GI50: 7.32 µM
  TGI: 65.6 µM
[49]
  GI50: 10.9 µM
  TGI: 43.6 µM
[50]
  GI50: 9.73 µM
  TGI: > 100 µM
[51]
  GI50: 50.5 µM
  TGI: > 100 µM
[52]
  GI50: 19.2 µM
  TGI: 47.2 µM
[53]
  GI50: 7.72 µM
  TGI: > 100 µM
[54]
  GI50: 2.84 µM
  TGI: 7.25 µM
[55]
  GI50: 1.61 µM
  TGI: 2.97 µM
[56]
  GI50: 10.1 µM
  TGI: 28.5 µM
[57]
  GI50: 28 µM
  TGI: > 100 µM
[58]
  GI50: 6.85 µM
  TGI: > 100 µM
